Results on 21 molecules are retold here after patent US20240166624A1, “PPARG INVERSE AGONISTS AND USES THEREOF” (Flare Therapeutics Inc., priority 2021, published 2024).

In general, EC50 refers to the midpoint of the concentration-response curve. One may read the inhibition as the drop in the measured response relative to a control, in per cent. A high value points to a response far below the control.

Assay [1] concerns the target T1, PPARG/RXRA LBD heterodimer (Homo sapiens, UniProt P37231).
T1 construct: His-TEV-Q203-Y477; Uniprot ID P37231-2; made in house; host or cells: E. coli
Briefly: PPARγ-NCOR1 recruitment assay (TR-FRET, biotinylated NCOR1 ID2 peptide). Type of assay: biochemical. The note with it: 80 nM Rosiglitazone, 3 hours, read-out: PPARG-NCOR recruitment assay EC50. In a few lines: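 2 nM each of E. coli-expressed PPARG LBD (Q203-Y477) and RXRA LBD (WT or S427F, E228-T462) with biotinylated NCOR1 ID2 peptide, incubated 3 h; TR-FRET read at Ex/Em 615/665. Ratios normalized to DMSO (0%) and T0070907 maximum (100%) for EC50 and maximal recruitment.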
In general terms: TR-FRET usually uses a lanthanide donor and a delayed reading to cut background.
T1 sequence (O75376 2251-2273 partner, one chain of several): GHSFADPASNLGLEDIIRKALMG

Assay [2] has as its target T2, PPARG/RXRA LBD heterodimer (Homo sapiens, UniProt P37231).
T2 construct: His-TEV-Q203-Y477; Uniprot ID P37231-2; made in house; host or cells: E. coli
T2 sequence (P37231 203-477 isoform P37231-2): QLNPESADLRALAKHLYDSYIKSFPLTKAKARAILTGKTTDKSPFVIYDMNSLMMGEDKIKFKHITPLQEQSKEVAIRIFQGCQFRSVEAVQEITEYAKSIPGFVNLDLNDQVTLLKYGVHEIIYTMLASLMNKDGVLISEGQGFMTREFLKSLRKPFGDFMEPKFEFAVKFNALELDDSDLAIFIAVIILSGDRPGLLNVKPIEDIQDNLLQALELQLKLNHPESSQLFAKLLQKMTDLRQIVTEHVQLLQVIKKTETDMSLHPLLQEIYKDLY
T2 sequence (P19793 228-462 partner limits assumed): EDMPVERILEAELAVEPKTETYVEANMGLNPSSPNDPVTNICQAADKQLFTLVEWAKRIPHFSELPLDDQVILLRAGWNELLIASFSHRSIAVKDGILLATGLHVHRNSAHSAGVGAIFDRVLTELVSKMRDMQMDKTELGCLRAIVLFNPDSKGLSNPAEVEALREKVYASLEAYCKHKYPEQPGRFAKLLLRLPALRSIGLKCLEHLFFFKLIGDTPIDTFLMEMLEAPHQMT
As to the kind of experiment: PPARγ-MED1 blockade assay (TR-FRET, biotinylated MED1 LxxLL peptide). Type of assay: biochemical. The note with it: WT PPARG LBD/WT RXRA LBD, 80 nM Rosiglitazone, 3 hours. In a few lines: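 TR-FRET measuring biotinylated MED1 LxxLL peptide association with 2 nM each His-PPARG LBD (Q203-Y477) and Flag-RXRA LBD (E228-T462), E. coli expressed. Read after 3 h incubation; ratios normalized to DMSO (0%) and GW9662 minimum (100%) for IC50 and maximal MED1 repulsion.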

For assay [3], the system named is ANGPTL4, a PPARG target gene, in HT1197 (RXRA S427F mutation) cells. As to the kind of experiment: Bladder cancer pharmacodynamic assay, HT1197 cell assay (qPCR of ANGPTL4). It counts as cell-based. To be noted: Homo sapiens, 24 hours, 100 nM compound, relative to DMSO control. Put shortly:
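5637 (PPARG amplified) and HT1197 (RXRA S427F) cells treated 24 h with PPARG inverse agonists. FABP4 and ANGPTL4 expression measured by qPCR, normalised to TBP, and reported relative to DMSO control by ΔΔCt.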
For orientation: Quantitative PCR measures a nucleic acid by following its amplification.

Molecules are shown by their SMILES.

With `N#Cc1ccc(Cl)c(-c2cc(=O)c3c(F)c(-c4ccc(CC(=O)O)cc4)c(F)cc3[nH]2)c1` [Example 76, 2-(4-(2-(2-chloro-5-cyanophenyl)-5,7-difluoro-4-oxo-1,4-dihydroquinolin-6-yl)phenyl)acetic acid], the EC50 in assay [1] and in assay [2] was 100 to 1000 nM each time. At 0.1 µM the inhibition in assay [3] was 39%.
As for `N#Cc1ccc(Cl)c(-c2cc(=O)c3c(F)c(CCC(=O)O)c(F)cc3[nH]2)c1` [Example 77, 3-(2-(2-chloro-5-cyanophenyl)-5,7-difluoro-4-oxo-1,4-dihydroquinolin-6-yl)propanoic acid], the EC50 in assay [1] and in assay [2] was 1000 to 10000 nM in each case. The molecule further returned an inhibition at 0.1 µM in assay [3] of 44%.
`CNC(=O)c1cccc(-c2c(F)cc3[nH]c(-c4cc(C#N)ccc4Cl)cc(=O)c3c2F)c1` [Example 78, 3-(2-(2-chloro-5-cyanophenyl)-5,7-difluoro-4-oxo-1,4-dihydroquinolin-6-yl)-N-methylbenzamide]: the EC50 in assay [1] and in assay [2] was 100 to 1000 nM in each case. In assay [3], this molecule yielded an inhibition at 0.1 µM of 36%.
Regarding `CNC(=O)c1ccc(-c2c(F)cc3[nH]c(-c4cc(C#N)ccc4Cl)cc(=O)c3c2F)cc1` [Example 79, 4-(2-(2-chloro-5-cyanophenyl)-5,7-difluoro-4-oxo-1,4-dihydroquinolin-6-yl)-N-methylbenzamide], the EC50 in assay [1] and in assay [2] was 100 to 1000 nM each time. Besides, in assay [3], the inhibition at 0.1 µM is 58%.
Turning to `CNC(=O)Cc1ccc(-c2c(F)cc3[nH]c(-c4cc(C#N)ccc4Cl)cc(=O)c3c2F)cc1` [Example 80, 2-(4-(2-(2-chloro-5-cyanophenyl)-5,7-difluoro-4-oxo-1,4-dihydroquinolin-6-yl)phenyl)-N-methylacetamide], the EC50 in assay [1] and in assay [2] was 100 to 1000 nM each time. In addition, in assay [3], the inhibition at 0.1 µM was found to be 47%.
With `CNC(=O)CCc1c(F)cc2[nH]c(-c3cc(C#N)ccc3Cl)cc(=O)c2c1F` [Example 81, 3-(2-(2-chloro-5-cyanophenyl)-5,7-difluoro-4-oxo-1,4-dihydroquinolin-6-yl)-N-methylpropanamide], the values for the EC50 in assay [1] and in assay [2] were 1000 to 10000 nM and more than 10000 nM, respectively. This molecule gave an inhibition at 0.1 µM in assay [3] of 46%.
On to `CN(C)C(=O)c1cc(-c2c(F)cc3[nH]c(-c4cc(C#N)ccc4Cl)cc(=O)c3c2F)ccc1F` [Example 82, 5-(2-(2-chloro-5-cyanophenyl)-5,7-difluoro-4-oxo-1,4-dihydroquinolin-6-yl)-2-fluoro-N,N-dimethylbenzamide], for which the EC50 in assay [1] and in assay [2] was 100 to 1000 nM in each case. Testing at 0.1 µM in assay [3] gave an inhibition of 70%.
Regarding `CN(C)C(=O)c1c(F)ccc(-c2c(F)cc3[nH]c(-c4cc(C#N)ccc4Cl)cc(=O)c3c2F)c1F` [Example 83, 3-(2-(2-chloro-5-cyanophenyl)-5,7-difluoro-4-oxo-1,4-dihydroquinolin-6-yl)-2,6-difluoro-N,N-dimethylbenzamide], the EC50 in assay [1] and in assay [2] was 100 to 1000 nM in each case. For the same molecule, testing at 0.1 µM in assay [3] gave an inhibition of 76%.
In the case of `CN(C)C(=O)CCc1c(F)cc2[nH]c(-c3cc(C#N)ccc3Cl)cc(=O)c2c1F` [Example 84, 3-(2-(2-chloro-5-cyanophenyl)-5,7-difluoro-4-oxo-1,4-dihydroquinolin-6-yl)-N,N-dimethylpropanamide], the EC50 in assay [1] and in assay [2] was 1000 to 10000 nM throughout. Also, 0.1 µM produced 67% inhibition in assay [3].
`CN(C)C(=O)c1cccc(-c2c(F)cc3[nH]c(-c4cc(C#N)ccc4Cl)cc(=O)c3c2F)n1` [Example 85, 6-(2-(2-chloro-5-cyanophenyl)-5,7-difluoro-4-oxo-1,4-dihydroquinolin-6-yl)-N,N-dimethylpicolinamide]: the EC50 in assay [1] and in assay [2] was 1000 to 10000 nM throughout. The molecule further had an inhibition at 0.1 µM in assay [3] of 59%.
As for `CN(C)C(=O)c1cc(-c2c(F)cc3[nH]c(-c4cc(C#N)ccc4Cl)cc(=O)c3c2F)cc(F)c1F` [Example 86, 5-(2-(2-chloro-5-cyanophenyl)-5,7-difluoro-4-oxo-1,4-dihydroquinolin-6-yl)-2,3-difluoro-N,N-dimethylbenzamide], the EC50 in assay [1] and in assay [2] was 100 to 1000 nM each time. In assay [3], this molecule yielded an inhibition at 0.1 µM of 75%.
Consider `CN(C)C(=O)c1cc(-c2c(F)cc3[nH]c(-c4cc(C#N)ccc4Cl)cc(=O)c3c2F)c(F)cc1F` [Example 87, 5-(2-(2-chloro-5-cyanophenyl)-5,7-difluoro-4-oxo-1,4-dihydroquinolin-6-yl)-2,4-difluoro-N,N-dimethylbenzamide], for which the EC50 in assay [1] and in assay [2] was 100 to 1000 nM each time. In addition, the inhibition at 0.1 µM in assay [3] was determined as 75%.
`CN(C)C(=O)c1cc(-c2c(F)cc3[nH]c(-c4cc(C#N)ccc4Cl)cc(=O)c3c2F)ccn1` [Example 88, 4-(2-(2-chloro-5-cyanophenyl)-5,7-difluoro-4-oxo-1,4-dihydroquinolin-6-yl)-N,N-dimethylpicolinamide]: the EC50 is 1000 to 10000 nM in assay [1] and more than 10000 nM in assay [2]. The molecule further returned an inhibition at 0.1 µM in assay [3] of 41%.
Regarding `CN(C)C(=O)c1cc(-c2c(F)cc3[nH]c(-c4cc(C#N)ccc4Cl)cc(=O)c3c2F)ccc1C(F)(F)F` [Example 89, 5-(2-(2-chloro-5-cyanophenyl)-5,7-difluoro-4-oxo-1,4-dihydroquinolin-6-yl)-N,N-dimethyl-2-(trifluoromethyl)benzamide], the EC50 in assay [1] and in assay [2] was 100 to 1000 nM each time. The molecule also registered an inhibition at 0.1 µM in assay [3] of 56%.
As for `N#Cc1ccc(Cl)c(-c2cc(=O)c3c(F)c(C(O)CO)c(F)cc3[nH]2)c1` (stereo not drawn) [Example 90, 4-chloro-3-(6-(1,2-dihydroxyethyl)-5,7-difluoro-4-oxo-1,4-dihdroquinolin-2-yl)benzonitrile], the EC50 was 1000 to 10000 nM in assay [1] and more than 10000 nM in assay [2]. The inhibition at 0.1 µM in assay [3] turned out to be 0%.
Take `N#Cc1ccc(Cl)c(-c2cc(=O)c3c(F)c(-c4ccn(CC(O)CO)n4)c(F)cc3[nH]2)c1` (stereo not drawn) [Example 92, 4-chloro-3-(6-(1-(2,3-dihydroxypropyl)-1H-pyrazol-3-yl)-5,7-difluoro-4-oxo-1,4-dihydroquinolin-2-yl)benzonitrile]: the EC50 in assay [1] and in assay [2] was 100 to 1000 nM each time. The molecule further displayed an inhibition at 0.1 µM in assay [3] of 24%.
Regarding `N#Cc1ccc(Cl)c(-c2cc(=O)c3c(F)c(C4=CCNCC4)c(F)cc3[nH]2)c1` [Example 93, 4-chloro-3-(5,7-difluoro-4-oxo-6-(1,2,3,6-tetrahydropyridin-4-yl)-14-dihydroquinolin-2-yl)benzonitrile], the EC50 in assay [1] and in assay [2] was 1000 to 10000 nM throughout. The molecule further returned an inhibition at 0.1 µM in assay [3] of 48%.
`N#Cc1ccc(Cl)c(-c2cc(=O)c3c(F)c(C4CCNCC4)c(F)cc3[nH]2)c1` [Example 94, 4-chloro-3-(5,7-difluoro-4-oxo-6-(piperidin-4-yl)-1,4-dihydroquinolin-2-yl)benzonitrile]: the EC50 in assay [1] and in assay [2] was 1000 to 10000 nM each time. In assay [3], this molecule had an inhibition at 0.1 µM of 27%.
As for `CC(=O)N1CCC(c2c(F)cc3[nH]c(-c4cc(C#N)ccc4Cl)cc(=O)c3c2F)CC1` [Example 95, 3-(6-(1-acetylpiperidin-4-yl)-5,7-difluoro-4-oxo-1,4-dihydroquinolin-2-yl)-4-chlorobenzonitrile], the EC50 in assay [1] and in assay [2] was 100 to 1000 nM each time. Testing at 0.1 µM in assay [3] gave an inhibition of 87%.
Turning to `CC(=O)N1CCN(c2c(F)cc3[nH]c(-c4cc(C#N)ccc4Cl)cc(=O)c3c2F)CC1` [Example 96, 3-(6-(4-acetylpiperazin-1-yl)-5,7-difluoro-4-oxo-1,4-dihydroquinolin-2-yl)-4-chlorobenzonitrile], the EC50 in assay [1] and in assay [2] was 1000 to 10000 nM in each case. The same molecule displayed an inhibition at 0.1 µM in assay [3] of 82%.
`N#Cc1ccc(Cl)c(-c2cc(=O)c3c(F)c(-c4cc[nH]n4)c(F)cc3[nH]2)c1` [Example 97, 4-chloro-3-(5,7-difluoro-4-oxo-6-(1H-pyrazol-3-yl)-1,4-dihydroquinolin-2-yl)benzonitrile]: the EC50 in assay [1] and in assay [2] was 100 to 1000 nM each time. Moreover, the inhibition at 0.1 µM in assay [3] turned out to be 52%.
